Test results taken from publication PMC12211128, “Safety, tolerability, pharmacokinetic and pharmacodynamic effects of the muscarinic M1 positive allosteric modulator VU0467319 for Alzheimer’s disease: a single ascending-dose study in healthy participants” (Alzheimer's Research & Therapy, 2025).

System: healthy participants
Experiment: Spatial selective attention test (SSAT)
Assay type: in vivo, human
Settings: for SSAT Alerting Cost / SSAT Reorienting Cost: mean (SD)
Description: A version of the spatial selective attention test (SSAT; [33]) was used to assess the ability of participants to disengage attention and shift to a new target. Participants were asked to press a button corresponding to the side of the screen on which a stimulus appeared. The outcome variables of the task are the reaction time effects related to the ability of participants to anticipate a target when there is an ambiguous cue compared to there being no cue at all (Alerting effect: no cue– neutral cue); and the ability of participants to shift their attention between congruent and incongruent stimuli (Reorienting effect: invalid cue– valid cue).
Cognitive data: In this exploratory analysis, each outcome variable of the cognitive data was examined in a mixed model analysis of variance with one between-subjects factor of VU319 dose (0, 60, 120, 240, 400, 600 mg) and a within-subjects factor of testing session (pre-dose vs. post-dost administration). Post-hoc analysis compared each of the VU319 dose cohorts against the placebo group. Because the participants were healthy adults with normal cognitive function, we considered effects between no reductions in function to small improvement (d = 0.0–0.20) to be a positive result. For the food effect study, only the participants who received VU319 were examined due to the disproportionately small placebo group (n = 2). A within-subjects ANOVA including food condition (fasted/fed) and testing session (pre-dose vs. post-dose administration) was performed on each outcome variable.
A version of the spatial selective attention test (SSAT; (Posner, 1980)) was used to assess the ability of participants to disengage attention and shift to a new target. Participants were asked to press a button corresponding to the side of the screen on which a stimulus appeared. A central diamond was placed in between serving as a fixation point. Cues consisted of a 200-ms darkening of one side of the diamond depicting an arrowhead pointing to one of the peripheral boxes. The cue was followed by a target appearing for 100-ms in one of the boxes. To prevent temporal orienting, we used two randomly occurring cue–target intervals (400 and 700-ms). The targets were black diamonds that appeared in either the left or right boxes. In most trials, the cue validly predicted the target, however some cues were invalid, that is they pointed in the opposite direction of the target. On some trials, both sides of the diamond darkened, resulting in an ambiguous or neutral cue in which the participants were not able to prepare a specific hand to respond. […] The task consisted of 112 trials, with 64 trials (57%) with valid cues, and 16 trials (14.3%) each for the invalid, neutral or no cues conditions. The outcome variables of the task are the reaction time effects related to the ability of participants to anticipate a target when there is an ambiguous cue compared to there being no cue at all (Alerting effect: no cue – neutral cue); and the ability of participants to shift their attention between congruent and incongruent stimuli (Reorienting effect: invalid cue – valid cue).

[1] = Food effect study 120 mg, Fasting, Post-Drug
[2] = Food effect study 120 mg, Fasting, Pre-Drug
[3] = Food effect study 120 mg, Fed, Post-Drug
[4] = Food effect study 120 mg, Fed, Pre-Drug

SMILES: Cn1cc2c(-c3cc(F)c(CN4Cc5ncccc5C4=O)c(F)c3)cccc2n1 [VU319]
- SSAT Alerting Cost [1]: 25.8 (59.97) ms
- SSAT Reorienting Cost [1]: 49.55 (35.68) ms
- SSAT Alerting Cost [2]: 60.4 (53.4) ms
- SSAT Reorienting Cost [2]: 52.15 (24.83) ms
- SSAT Alerting Cost [3]: 113.15 (181.48) ms
- SSAT Reorienting Cost [3]: 49.45 (32.65) ms
- SSAT Alerting Cost [4]: 54.1 (45.3) ms
- SSAT Reorienting Cost [4]: 56.75 (38.19) ms
- SSAT Alerting Cost (SAD study, 60 mg, Post-Drug): 59.58 (43) ms
- SSAT Reorienting Cost (SAD study, 60 mg, Post-Drug): 55.25 (34.49) ms
- SSAT Alerting Cost (SAD study, 60 mg, Pre-Drug): 53.67 (39.48) ms
- SSAT Reorienting Cost (SAD study, 60 mg, Pre-Drug): 43.58 (31.92) ms
- SSAT Alerting Cost (SAD study, 120 mg, Post-Drug): 44.25 (22.86) ms
- SSAT Reorienting Cost (SAD study, 120 mg, Post-Drug): 20.33 (32.95) ms
- SSAT Alerting Cost (SAD study, 120 mg, Pre-Drug): 62.75 (45) ms
- SSAT Reorienting Cost (SAD study, 120 mg, Pre-Drug): 10.17 (18.88) ms
- SSAT Alerting Cost (SAD study, 240 mg, Post-Drug): 58.83 (38.04) ms
- SSAT Reorienting Cost (SAD study, 240 mg, Post-Drug): 39.67 (33.04) ms
- SSAT Alerting Cost (SAD study, 240 mg, Pre-Drug): 34.83 (27.3) ms
- SSAT Reorienting Cost (SAD study, 240 mg, Pre-Drug): 27.92 (29.28) ms
- SSAT Alerting Cost (SAD study, 400 mg, Post-Drug): 44.92 (26.61) ms
- SSAT Reorienting Cost (SAD study, 400 mg, Post-Drug): 31.25 (18.61) ms
- SSAT Alerting Cost (SAD study, 400 mg, Pre-Drug): 59.75 (24.51) ms
- SSAT Reorienting Cost (SAD study, 400 mg, Pre-Drug): 22.17 (25) ms
- SSAT Alerting Cost (SAD study, 600 mg, Post-Drug): 19.5 (41.26) ms
- SSAT Reorienting Cost (SAD study, 600 mg, Post-Drug): 31.33 (15.75) ms
- SSAT Alerting Cost (SAD study, 600 mg, Pre-Drug): 26.08 (37.44) ms
- SSAT Reorienting Cost (SAD study, 600 mg, Pre-Drug): 20.92 (11.57) ms
- SSAT reorienting effect, effect of dose (SAD study, both p > 0.3): no effect of dose, nor a dose by time interaction
- SSAT, effect of food condition or time (food effect study, 120 mg): no effect of either food condition or time
